# Reference: patent US8198450B2, “Quinolinone derivatives and their pharmaceutical compositions” (Novartis AG, priority 2006, dated 2012)
# Columns and labels:
# [1] = clinic: treatment of asthma and chronic obstructive pulmonary disease; type: in vivo
# [2] = hygroscopicity; type: physicochemical
# [3] = equilibration in solvents, crystalline form; type: physicochemical; settings: 1 day at 25° C. in water, ethanol and isopropanol
# [4] = stability of the salt; type: physicochemical; settings: before and after micronisation, with or without excipients, with and without moisture
# [5] = solubility in ethanol; type: physicochemical
cough exhibited by certain patients on administration ([1]; particularly first administration),hygroscopicity [2],change of crystalline form after equilibration [3],stability [4],solubility in ethanol [5],SMILES,tested in the clinic for the treatment of asthma and chronic obstructive pulmonary disease ([1]; clinic)
cough,–,–,–,–,"CCc1cc2c(cc1CC)CC(NC[C@H](O)c1ccc(O)c3[nH]c(=O)ccc13)C2.O=C(O)/C=C\C(=O)O [(R)-5-[2-(5,6-diethyl-indan-2-ylamino)-1-hydroxyethyl]-8-hydroxy-1H-quinolin-2-one maleate]",tested favourably
–,substantially not hydroscopic,no change of crystalline form,especially stable,low,"CCc1cc2c(cc1CC)CC(NC[C@H](O)c1ccc(O)c3[nH]c(=O)ccc13)C2 [Example 12, (R)-5-[2-(5,6-diethyl-indan-2-ylamino)-1-hydroxyethyl]-8-hydroxy-1H-quinolin-2-one glycolate]",–
–,substantially not hydroscopic,no change of crystalline form,especially stable,low,"CC(=O)O.CCc1cc2c(cc1CC)CC(NC[C@H](O)c1ccc(O)c3[nH]c(=O)ccc13)C2 [Example 15, (R)-5-[2-(5,6-diethyl-indan-2-ylamino)-1-hydroxyethyl]-8-hydroxy-1H-quinolin-2-one acetate]",–
–,substantially not hydroscopic,no change of crystalline form,especially stable,low,"CCc1cc2c(cc1CC)CC(NC[C@H](O)c1ccc(O)c3[nH]c(=O)ccc13)C2.O=C(O)CC(=O)O [Example 21, (R)-5-[2-(5,6-diethyl-indan-2-ylamino)-1-hydroxyethyl]-8-hydroxy-1H-quinolin-2-one hydrogen malonate]",–
